In the supplement of paper PMC4862054:

These compounds were tested on MDA-MB-436 (assay: drug sensitivity score (DSS), CellTox Green (DSS (AUC-based score)); higher = stronger drug effect (viability inhibition or cytotoxicity); extreme values may be limits of the assay). Settings: incubation time: 72 h.
In short: (§1)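 For 72 h, breast cancer cell lines seeded at 20 µl suspension per well in 384-well plates were incubated with compound at 5 concentrations in 10-fold steps spanning a 10,000-fold range that differed by compound. The first reading was CellTox Green fluorescence at 485/520 nm, and the second was CellTiter-Glo luminescence after 10 min at room temperature. Both were normalised per plate to 0.1 % DMSO and a positive kill control, and the drug sensitivity score was obtained from the area under the fitted dose-response curve.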

With `Cc1ccc(-c2cc(C(F)(F)F)nn2-c2ccc(S(N)(=O)=O)cc2)cc1` [Celecoxib] as the compound, how does the drug sensitivity score read?
Its drug sensitivity score is 0.

For `COc1cc2c(NC3CCN(C(C)C)CC3)nc(C3CCCCC3)nc2cc1OCCCN1CCCC1` [UNC0638], which drug sensitivity score is on record?
The drug sensitivity score was 4.24.

For `COc1cc([C@@H]2c3cc4c(cc3[C@@H](O[C@@H]3O[C@@H]5CO[C@@H](c6cccs6)O[C@H]5[C@H](O)[C@H]3O)[C@H]3COC(=O)[C@H]23)OCO4)cc(OC)c1O` [Teniposide], which drug sensitivity score is on record?
Its drug sensitivity score is 0.

`CCc1cncnc1N1CCN(Cc2nc3ccc(C(F)(F)F)cc3[nH]2)CC1` was tested. Which drug sensitivity score did it give?
Its drug sensitivity score is 0.

For `COc1cc2nccc(Oc3ccc(NC(=O)Nc4cc(C)on4)c(Cl)c3)c2cc1OC` [Tivozanib], which drug sensitivity score is on record?
Its drug sensitivity score is 0.

What follows are compounds tested on MDA-MB-453 in the same assay as above. Settings: incubation time: 72 h.
In short: as §1

For `CC(=O)Nc1cccc(-n2c(=O)n(C3CC3)c(=O)c3c(Nc4ccc(I)cc4F)n(C)c(=O)c(C)c32)c1` [Trametinib], which drug sensitivity score is on record?
Its drug sensitivity score is 0.

`C=CCc1cccc(/C=N/NC(=O)CN2CCN(Cc3ccccc3)CC2)c1O` [PAC-1] was tested. Which drug sensitivity score did it give?
The drug sensitivity score was 0.

Which drug sensitivity score does the source give for `Nc1nc(F)nc2c1ncn2[C@@H]1O[C@H](CO)[C@@H](O)[C@@H]1O` [Fludarabine] here?
The drug sensitivity score was 0.

For `Nc1ncn([C@H]2C[C@H](O)[C@@H](CO)O2)c(=O)n1` [Decitabine], which drug sensitivity score is on record?
Its drug sensitivity score is 0.571.

With `CC[C@@H]1C(=O)N(C)c2cnc(Nc3ccc(C(=O)NC4CCN(C)CC4)cc3OC)nc2N1C1CCCC1` [BI 2536] as the compound, how does the drug sensitivity score read?
Its drug sensitivity score is 0.

For `CC[C@H](C)C(=O)O[C@H]1C[C@H](O)C=C2C=C[C@H](C)[C@H](CC[C@@H](O)C[C@@H](O)CC(=O)O)[C@H]21` [Pravastatin], which drug sensitivity score is on record?
The drug sensitivity score was 0.

Which drug sensitivity score does the source give for `O=C(O)C(=O)O.[NH-][C@@H]1CCCC[C@H]1[NH-].[Pt+2]` [Oxaliplatin] here?
Its drug sensitivity score is 0.

`CCN(CC)CCCC(C)Nc1c2ccc(Cl)cc2nc2ccc(OC)cc12` (stereo not drawn) [Mepacrine] was tested. Which drug sensitivity score did it give?
Its drug sensitivity score is 0.

`Cc1ccc(-c2cc(C(F)(F)F)nn2-c2ccc(S(N)(=O)=O)cc2)cc1` [Celecoxib] was tested. Which drug sensitivity score did it give?
Its drug sensitivity score is 0.

With `COc1cc2c(NC3CCN(C(C)C)CC3)nc(C3CCCCC3)nc2cc1OCCCN1CCCC1` [UNC0638] as the compound, how does the drug sensitivity score read?
The drug sensitivity score was 6.8.

`COc1cc([C@@H]2c3cc4c(cc3[C@@H](O[C@@H]3O[C@@H]5CO[C@@H](c6cccs6)O[C@H]5[C@H](O)[C@H]3O)[C@H]3COC(=O)[C@H]23)OCO4)cc(OC)c1O` [Teniposide] was tested. Which drug sensitivity score did it give?
The drug sensitivity score was 0.

With `CCc1cncnc1N1CCN(Cc2nc3ccc(C(F)(F)F)cc3[nH]2)CC1` as the compound, how does the drug sensitivity score read?
The drug sensitivity score was 0.

`COc1cc2nccc(Oc3ccc(NC(=O)Nc4cc(C)on4)c(Cl)c3)c2cc1OC` [Tivozanib] was tested. Which drug sensitivity score did it give?
The drug sensitivity score was 0.

These compounds were tested on MDA-MB-468 in the same assay as above. Settings: incubation time: 72 h.
In short: as §1

`CC(=O)Nc1cccc(-n2c(=O)n(C3CC3)c(=O)c3c(Nc4ccc(I)cc4F)n(C)c(=O)c(C)c32)c1` [Trametinib] was tested. Which drug sensitivity score did it give?
Its drug sensitivity score is 0.

How did the drug sensitivity score turn out when `C=CCc1cccc(/C=N/NC(=O)CN2CCN(Cc3ccccc3)CC2)c1O` [PAC-1] was run?
Its drug sensitivity score is 0.

For `Nc1nc(F)nc2c1ncn2[C@@H]1O[C@H](CO)[C@@H](O)[C@@H]1O` [Fludarabine], which drug sensitivity score is on record?
Its drug sensitivity score is 0.

Which drug sensitivity score does the source give for `Nc1ncn([C@H]2C[C@H](O)[C@@H](CO)O2)c(=O)n1` [Decitabine] here?
Its drug sensitivity score is 0.872.

Which drug sensitivity score does the source give for `CC[C@@H]1C(=O)N(C)c2cnc(Nc3ccc(C(=O)NC4CCN(C)CC4)cc3OC)nc2N1C1CCCC1` [BI 2536] here?
Its drug sensitivity score is 0.

`CC[C@H](C)C(=O)O[C@H]1C[C@H](O)C=C2C=C[C@H](C)[C@H](CC[C@@H](O)C[C@@H](O)CC(=O)O)[C@H]21` [Pravastatin] was tested. Which drug sensitivity score did it give?
The drug sensitivity score was 2.44.

Which drug sensitivity score does the source give for `O=C(O)C(=O)O.[NH-][C@@H]1CCCC[C@H]1[NH-].[Pt+2]` [Oxaliplatin] here?
Its drug sensitivity score is 0.

How did the drug sensitivity score turn out when `CCN(CC)CCCC(C)Nc1c2ccc(Cl)cc2nc2ccc(OC)cc12` (stereo not drawn) [Mepacrine] was run?
The drug sensitivity score was 0.235.

For `Cc1ccc(-c2cc(C(F)(F)F)nn2-c2ccc(S(N)(=O)=O)cc2)cc1` [Celecoxib], which drug sensitivity score is on record?
Its drug sensitivity score is 0.

`COc1cc2c(NC3CCN(C(C)C)CC3)nc(C3CCCCC3)nc2cc1OCCCN1CCCC1` [UNC0638] was tested. Which drug sensitivity score did it give?
Its drug sensitivity score is 7.09.

Which drug sensitivity score does the source give for `COc1cc([C@@H]2c3cc4c(cc3[C@@H](O[C@@H]3O[C@@H]5CO[C@@H](c6cccs6)O[C@H]5[C@H](O)[C@H]3O)[C@H]3COC(=O)[C@H]23)OCO4)cc(OC)c1O` [Teniposide] here?
Its drug sensitivity score is 6.45.

Which drug sensitivity score does the source give for `CCc1cncnc1N1CCN(Cc2nc3ccc(C(F)(F)F)cc3[nH]2)CC1` here?
Its drug sensitivity score is 0.

How did the drug sensitivity score turn out when `COc1cc2nccc(Oc3ccc(NC(=O)Nc4cc(C)on4)c(Cl)c3)c2cc1OC` [Tivozanib] was run?
The drug sensitivity score was 0.

Each compound was assayed on MFM-223 in the same assay as above. Settings: incubation time: 72 h.
In short: as §1

Which drug sensitivity score does the source give for `CC(=O)Nc1cccc(-n2c(=O)n(C3CC3)c(=O)c3c(Nc4ccc(I)cc4F)n(C)c(=O)c(C)c32)c1` [Trametinib] here?
The drug sensitivity score was 0.

For `C=CCc1cccc(/C=N/NC(=O)CN2CCN(Cc3ccccc3)CC2)c1O` [PAC-1], which drug sensitivity score is on record?
Its drug sensitivity score is 0.

`Nc1ncn([C@H]2C[C@H](O)[C@@H](CO)O2)c(=O)n1` [Decitabine] was tested. Which drug sensitivity score did it give?
Its drug sensitivity score is 0.

For `CC[C@@H]1C(=O)N(C)c2cnc(Nc3ccc(C(=O)NC4CCN(C)CC4)cc3OC)nc2N1C1CCCC1` [BI 2536], which drug sensitivity score is on record?
The drug sensitivity score was 6.01.

Which drug sensitivity score does the source give for `CC[C@H](C)C(=O)O[C@H]1C[C@H](O)C=C2C=C[C@H](C)[C@H](CC[C@@H](O)C[C@@H](O)CC(=O)O)[C@H]21` [Pravastatin] here?
The drug sensitivity score was 0.

Which drug sensitivity score does the source give for `O=C(O)C(=O)O.[NH-][C@@H]1CCCC[C@H]1[NH-].[Pt+2]` [Oxaliplatin] here?
Its drug sensitivity score is 0.

For `CCN(CC)CCCC(C)Nc1c2ccc(Cl)cc2nc2ccc(OC)cc12` (stereo not drawn) [Mepacrine], which drug sensitivity score is on record?
Its drug sensitivity score is 0.

How did the drug sensitivity score turn out when `Cc1ccc(-c2cc(C(F)(F)F)nn2-c2ccc(S(N)(=O)=O)cc2)cc1` [Celecoxib] was run?
Its drug sensitivity score is 0.

Which drug sensitivity score does the source give for `COc1cc2c(NC3CCN(C(C)C)CC3)nc(C3CCCCC3)nc2cc1OCCCN1CCCC1` [UNC0638] here?
The drug sensitivity score was 3.4.

`COc1cc([C@@H]2c3cc4c(cc3[C@@H](O[C@@H]3O[C@@H]5CO[C@@H](c6cccs6)O[C@H]5[C@H](O)[C@H]3O)[C@H]3COC(=O)[C@H]23)OCO4)cc(OC)c1O` [Teniposide] was tested. Which drug sensitivity score did it give?
Its drug sensitivity score is 6.4.

With `CCc1cncnc1N1CCN(Cc2nc3ccc(C(F)(F)F)cc3[nH]2)CC1` as the compound, how does the drug sensitivity score read?
The drug sensitivity score was 0.

How did the drug sensitivity score turn out when `COc1cc2nccc(Oc3ccc(NC(=O)Nc4cc(C)on4)c(Cl)c3)c2cc1OC` [Tivozanib] was run?
Its drug sensitivity score is 0.
